Reference: patent US8084602B2, “Porphyrin derivatives and their use in photodynamic therapy” (Destiny Pharma Limited, priority 2002, dated 2011)
Read-outs that look alike come from different tables or passages of the source.

Columns and labels:
[1] = system: Escherichia coli (strain ATCC 25922); test: Initial screening: growth inhibition after white light illumination; assay type: cell-based; settings: E. coli, 3 μM, 5 min incubation
Description: (§1) The toxic effects of exemplary compounds of the invention against two bacterial strains, the Gram negative bacterium Escherichia coli (strain ATCC 25922) and the Gram positive bacterium Staphylococcus aureus (methicillin-resistant strain ATTC BAA-44), were evaluated by measuring the extent of growth inhibition (bacteriostatic effect) and growth […] (cytocidal effect) in the dark and upon light exposure. Initial compound screening was undertaken using white light [390-740 nm] (150 mW/cm^2) for various timepoints of a concentration of 3 μM (see Table 1). Further experiments were undertaken on those compounds identified from this initial screen using a light source emitting light at a wavelength between 417-420 nm at 15.2 mW/cm^2, 13.68 J/cm^2 (Waldmann Eclairage SA, France) (see Table 20.
(§2) The following protocol was used for the initial screening of the exemplary compounds (Table 1) (see Reddi et al., 2002, Photochem. Photobiol. 75(5):462-470): • (i) E. coli and S. aureus cells were grown overnight on brain heart infusion agar, resuspended in brain heart infusion broth, harvested by centrifugation (3000 g for 15 minutes) and washed once with phosphate buffered saline (PBS) at pH 7.4 consisting 2.7 mM KCl and 0.14 M NaCl. • (ii) The cells were then resuspended in PBS to an optical density at 650 nm of 0.7, which corresponds to a density of 10^8 to 10^9 cells/ml. • (iii) Next, the cells were incubated in PBS in the dark for 5 minutes with 3.0 μM of the compound to be tested. • (iv) After dark incubation, cells were illuminated with white light (wavelength: 390 to 740 nm) (150 mW/cm^2) for up to 30 minutes. During illumination, the cells were kept at 37° C. and magnetically stirred. • (v) Finally, treated and untreated (control) cells were diluted in brain heart infusion broth and maintained at […] while the absorbance of the suspension at 650 nm was monitored at predetermined time points for determining growth curves.
(§3) The percent of growth inhibition in the treated cells was calculated by the following equation: [1−(Ax−A0)/(Ac−A0)]×100 where Ax Ac are the absorbances measured after 3 hours incubation, for the treated and control cell suspensions, respectively, and A0 represents the initial absorbance.

[2] = system: Staphylococcus aureus (methicillin-resistant strain ATTC BAA-44); test: as above; assay type: cell-based; settings: for Growth inhibition (%): S. aureus, 3 μM, 5 min incubation; for inhibition at 3 µM: Staphylococcus aureus
Description: as §1, §2, §3

| Compound | Growth inhibition (%) ([1]; illumination time 0 min) | Growth inhibition (%) ([1]; illumination time 1 min) | Growth inhibition (%) ([1]; illumination time 5 min) | Growth inhibition (%) ([1]; illumination time 10 min) | Growth inhibition (%) ([1]; illumination time 15 min) | Growth inhibition (%) ([1]; illumination time 30 min) | Growth inhibition (%) ([2]; illumination time 0 min) | Growth inhibition (%) ([2]; illumination time 1 min) | Growth inhibition (%) ([2]; illumination time 5 min) | Growth inhibition (%) ([2]; illumination time 10 min) | Growth inhibition (%) ([2]; illumination time 15 min) | Growth inhibition (%) ([2]; illumination time 30 min) | inhibition at 3 µM ([2]; BAA44, 5 min, read-out: Growth inhibition (%), S. aureus, 5 min incubation, illumination time 5 min) | inhibition at 3 µM ([2]; BAA44, read-out: Growth inhibition (%), S. aureus, 5 min incubation, illumination time 0 min) | inhibition at 3 µM ([2]; BAA44, read-out: Growth inhibition (%), S. aureus, 5 min incubation, illumination time 1 min) | inhibition at 3 µM ([2]; BAA44, read-out: Growth inhibition (%), S. aureus, 5 min incubation, illumination time 10 min) | inhibition at 3 µM ([2]; BAA44, read-out: Growth inhibition (%), S. aureus, 5 min incubation, illumination time 15 min) | inhibition at 3 µM ([2]; BAA44, read-out: Growth inhibition (%), S. aureus, 5 min incubation, illumination time 30 min) |
| --- | --- | --- | --- | --- | --- | --- | --- | --- | --- | --- | --- | --- | --- | --- | --- | --- | --- | --- |
| 5,10,15-tris-[4-(3-Trimethyl-ammoniopropyloxy)-phenyl]-20-(4-tetradecyloxy-phenyl)-porphyrin trichloride [Compound 36, reference compound] | 6% | 56% | 84% | 90% | 92% | 95% | 22% | 96% | 100% | 100% | 100% | 100% |  |  |  |  |  |  |
| 5,10,15-tris[3-(3-Trimethyl-ammoniopropyloxy)-phenyl]-20-(3-undecyloxy-phenyl)-porphyrin trichloride [Compound 33, reference compound] | 6% | 10% | 25% | 53% | 67% | 78% | 22% | 57% | 99% | 100% | 100% | 100% |  |  |  |  |  |  |
| 5,15-bis-[3-(3-Trimethylammmonio-proploxy)-phenyl]-10-undecyl-porphyrin dichloride [Compound 28] | 4% | 21% | 60% | 73% | 81% | 92% | 15% | 91% | 100% | 100% | 100% | 100% |  |  |  |  |  |  |
| 5-[4-(3-Dimethyldecyl-ammoniopropyloxy)-phenyl]-15-{4-[3-dimethyl-(3-dimethylaminopropyl)-ammoniopropyloxy]-phenyl}-porphyrin dichloride [Compound 32] | 3% | 10% | 16% | 22% | 22% | 38% | 23% | 100% | 100% | 100% | 100% | 100% |  |  |  |  |  |  |
| 5-{4-[3-Dimethyl-(3-trimethylammonio-propyl)-ammonio-propyloxy]-phenyl}-15-(4-dodecyloxy-phenyl)-porphyrin dichloride [Compound 31] |  |  |  |  |  |  | 9% | 28% | 38% | 78% | 82% | 83% |  |  |  |  |  |  |
| CCCCCCCCCCCOc1ccc(-c2c3nc(c(-c4ccc(OCCCCCCCCCCC)cc4)c4ccc([nH]4)c(-c4ccc(OCCC[N+](C)(C)C)cc4)c4nc(c(-c5ccc(OCCC[N+](C)(C)C)cc5)c5ccc2[nH]5)C=C4)C=C3)cc1 [Compound 29, 5,10-bis-[4-(3-Trimethylammonio-propyloxy)-phenyl]-15,20-bis-(4-undecyloxy-phenyl)-porphyrin dichloride, reference compound] |  |  |  |  |  |  |  |  |  |  |  |  | 49% | 14% | 43% | 53% | 55% | 55% |
